# According to patent US20030207014A1, “Animal feed and additive for animal feed to control feed borne pathogens” (priority 2002, published 2003):
# Key:
# [1] = test system: microbes present in animal feeds; assay: laboratory tests of anti-microbial action in animal feed
# Excerpt: These properties make sodium percarbonate an ideal feed additive for animal feeds. In the preferred embodiments of the present invention sodium percarbonate is included in the feed formulations prior to the pellet forming process common to most animal feed processing procedures. […] This is due to the broad disinfection action of the sodium percarbonate upon all bacteria and the spores of bacteria, fungi, and algae.
# Such mammalian animal proteins have been banned throughout Europe although they continue to be used in other parts of the world. Otherwise the animal feeds in accordance with present invention are substantially the same as conventional animal feeds with the addition of sodium percarbonate.
# [2] = stability under pressure steam sterilization; format: physicochemical
# [3] = feeding of treated feed to livestock / poultry; format: in vivo
# Excerpt: The preferred proportion of sodium percarbonate will vary for the specific animal feed composition and the specific animal consuming the feed as well as various environmental factors.
structure (smiles),measurement,setting,value
O=C([O-])[O-].O=C([O-])[O-].OO.OO.OO.[Na+].[Na+].[Na+].[Na+] [sodium percarbonate],effectiveness depending on feed composition,[1]; animal feeds that do not include mammalian animal proteins,greatest
same,anti-microbial effectiveness,"[1]; laboratory tests, all bacteria and spores of bacteria, fungi, algae",effective against all microbes present in animal feeds
same,stability,[2],very stable
same,acceptance of treated feed,[3]; livestock,readily accepted
same,digestive reactions,"[3]; poultry, rates of 2-8% by weight in feed",no untold digestive reactions
